As usually defined, the IC50 is the concentration that gives 50% inhibition. The low end stands for greater potency, the high end for weaker potency.

Results on 32 compounds are retold here after US6048854A, “2,3-diaminopropionic acid derivative” (Sumitomo Pharmaceuticals Company, Limited, priority 1993, dated 2000).

This test deals with platelet aggregation. Briefly: Platelet aggregation inhibitory activity (ADP-induced, human platelet rich plasma). The class given is cell-based. The protocol:
The blood was collected from the elbow vein of a normal volunteer with mixing thereof with 1/10 volume of 3.8% sodium citrate, and the blood was centrifuged at 1000 rpm (150 g) for 10 minutes to give the supernatant as platelet rich plasma (PRP). To PRP (200 μl) was added a test compound solution (2 μl), and the mixture was incubated with stirring at 1000 rpm at 37° C. for two minutes, and thereto was added a platelet aggregator, adenosine diphosphate (ADP, 22 μl) at a final concentration of 3 μg/ml. The platelet aggregation activity was determined by nephelometric analysis using a Hematracer (manufactured by Niko Bioscience, Ltd.). The test results of platelet aggregation inhibitory activity are expressed by IC50, which is a concentration of the test compound being required to inhibit the platelet aggregation reaction by 50%.
The compounds of Examples 18 to 70 were tested in the same manner as in Example 17.
The compounds of Examples 72 to 116 were tested in the same manner as in Example 17.

[1] abbreviates: Table 1, human PRP, ADP 3 μg/ml, 37° C.
[2] abbreviates: Homo sapiens, Table 2, same manner as Example 17.

Consider `CCCCS(=O)(=O)N[C@@H](CNC(=O)CCNC(=O)CCC1CCNCC1)C(=O)O` [Example 3, (2S)-2-butanesulfonylamino-3-(3-(3-(4-piperidyl)propanoylamino)propanoylamino)propanoic Acid], for which, under setting [1], the IC50 was found to be 0.162 µM. Still for that read-out and setting: the same measure for `O=C(CCC1CCNCC1)NCCC(=O)NC[C@H](NC(=O)OCc1ccccc1)C(=O)O` [Example 4, (2S)-2-Benzyloxycarbonylamino-3-(3-(3-(4-piperidyl)propanoylamino)propanoylamino)propanoic Acid]: 0.513 µM; for `CCCCS(=O)(=O)N[C@@H](CNC(=O)CNC(=O)CCCC1CCNCC1)C(=O)O` [Example 5, (2S)-2-butanesulfonylamino-3-(N-(4-(4-piperidyl)butanoyl)glycylamino)propanoic Acid]: 2.99 µM; for `O=C(CCC(=O)NC[C@H](NS(=O)(=O)c1ccccc1)C(=O)O)NCCC1CCNCC1` [Example 6, (2S)-2-benzenesulfonylamino-3-(N-(2-(4-piperidyl)ethyl)succinamylamino)propanoic Acid]: 0.376 µM. `CCCCS(=O)(=O)N[C@@H](CNC(=O)CNC(=O)[C@H](C)N(C)C(=O)CCC1CCNCC1)C(=O)O` [Example 7, (2S)-2-butanesulfonylamino-3-(N-(3-(4-piperidyl)propanoyl)-N-methyl-L-alanylglycylamino)propanoic Acid]: half-maximal inhibition under setting [1] (IC50) required 1.22 µM.

Regarding `CCCCS(=O)(=O)N[C@@H](CNC(=O)CNC(=O)CCCCCC1CCNCC1)C(=O)O` [Example 8, (2S)-2-butanesulfonylamino-3-(N-(6-(4-piperidyl)hexanoyl)glycylamino)propanoic Acid], the IC50 under setting [1] stood at 0.583 µM. On the same count and under the same terms, the same measure for `CCCCS(=O)(=O)N[C@H](CNC(=O)CCNC(=O)CCC1CCNCC1)C(=O)O` [Example 9, (2R)-2-butanesulfonylamino-3-(3-(3-(4-piperidyl)propanoylamino)propanoylamino)propanoic Acid]: 3.63 µM; for `O=C(CCC1CCNCC1)NCCC(=O)NC[C@H](NS(=O)(=O)Cc1ccccc1)C(=O)O` [Example 10, (2S)-2-benzylsulfonylamino-3-(3-(3-(4-piperidyl)propanoylamino)propanoylamino)propanoic Acid]: 0.232 µM. Regarding `CCCCC(=O)N[C@@H](CNC(=O)CCNC(=O)CCC1CCNCC1)C(=O)O` [Example 11, (2S)-2-pentanoylamino-3-(3-(3-(4-piperidyl)propanoylamino)propanoylamino)propanoic Acid], under setting [1], half-maximal inhibition (IC50) was put at 8.73 µM. On to `CCCCS(=O)(=O)N[C@@H](CNC(=O)CNC(=O)CCCCC1CCNCC1)C(=O)O` [Example 12, (2S)-2-butanesulfonylamino-3-(N-(5-(4-piperidyl)pentanoyl)glycylamino)propanoic Acid], for which the IC50 under setting [1] was 1.37 µM. The same measure, in the same setting: the same measure for `CCCCS(=O)(=O)N[C@@H](CNC(=O)CCNC(=O)CCCCC1CCNCC1)C(=O)O` [Example 13, (2S)-2-butanesulfonylamino-3-(3-(5-(4-piperidyl)pentanoylamino)propanoylamino)propanoic Acid]: 1.81 µM; for `CCCCS(=O)(=O)N[C@@H](CNC(=O)CNC(=O)[C@H](Cc1ccc(OC)cc1)NC(=O)CCC1CCNCC1)C(=O)O` [Example 14, (2S)-2-butanesulfonylamino-3-(N-(3-(4-piperidyl)propanoyl)-O-methyl-L-tyrosylglycylamino)propanoic Acid]: 6.14 µM. `CCCCS(=O)(=O)N[C@@H](CNC(=O)CNC(=O)[C@H](C)NC(=O)CCC1CCNCC1)C(=O)O` [Example 15, (2S)-2-butanesulfonylamino-3-(N-(3-(4-piperidyl)propanoyl)-L-alanylglycylamino)propanoic Acid] gave an IC50 under setting [1] of 5.24 µM. `COc1ccc(C[C@H](NC(=O)CCC2CCNCC2)C(=O)NCC(=O)NC[C@H](NS(C)(=O)=O)C(=O)O)cc1` [Example 16, (2S)-2-methanesulfonylamino-3-(N-(3-(4-piperidyl)propanoyl)-O-methyl-L-tyrosylglycylamino)propanoic Acid] came in with a half-inhibitory concentration (IC50) under setting [1] of 2.53 µM. Regarding `Cc1ccccc1S(=O)(=O)N[C@@H](CNC(=O)CCNC(=O)CCC1CCNCC1)C(=O)O` [Example 24, (2S)-2-(2-methyl)benzenesulfonylamino-3-(3-(3-(4-piperidyl)propanoylamino)propanoylamino)propanoic Acid], inhibition under setting [2] was half-maximal at 0.03 µM (IC50). On to `Cc1cccc(S(=O)(=O)N[C@@H](CNC(=O)CCNC(=O)CCC2CCNCC2)C(=O)O)c1` [Example 25, (2S)-2-(3-methyl)benzenesulfonylamino-3-(3-(3-(4-piperidyl)propanoylamino)propanoylamino)propanoic Acid], for which the midpoint of inhibition under setting [2], the IC50, lay at 0.022 µM. Under setting [2], `Cc1ccc(S(=O)(=O)N[C@@H](CNC(=O)CCNC(=O)CCC2CCNCC2)C(=O)O)cc1` [Example 26, (2S)-2-(4-methyl)benzenesulfonylamino-3-(3-(3-(4-piperidyl)propanoylamino)propanoylamino)propanoic Acid] gave an IC50 of 0.029 µM. `O=C(CCC1CCNCC1)NCCC(=O)NC[C@H](NS(=O)(=O)c1ccccc1C(F)(F)F)C(=O)O` [Example 27] had a 50% inhibitory concentration (IC50) under setting [2] of 0.026 µM. Under setting [2], `O=C(CCC1CCNCC1)NCCC(=O)NC[C@H](NS(=O)(=O)c1cccc(C(F)(F)F)c1)C(=O)O` [Example 28, (2S)-3-(3-(3-(4-piperidyl)propanoylamino)propanoylamino)-2-(3-trifluoromethyl)benzenesulfonylaminopropanoic Acid] yielded an IC50 of 0.058 µM.

Under setting [2], `O=C(CCC1CCNCC1)NCCC(=O)NC[C@H](NS(=O)(=O)c1ccc(C(F)(F)F)cc1)C(=O)O` [Example 29, (2S)-3-(3-(3-(4-piperidyl)propanoylamino)propanoylamino)-2-(4-trifluoromethyl)benzenesulfonylaminopropanoic Acid] had a concentration for half-maximal inhibition (IC50) of 0.17 µM. In the case of `O=C(CCC1CCNCC1)NCCC(=O)NC[C@H](NS(=O)(=O)c1ccccc1[N+](=O)[O-])C(=O)O` [Example 30, (2S)-2-(2-nitro)benzenesulfonylamino-3-(3-(3-(4-piperidyl)propanoylamino)propanoylamino)propanoic Acid], the IC50 under setting [2] was 0.016 µM.

Under setting [2], `O=C(CCC1CCNCC1)NCCC(=O)NC[C@H](NS(=O)(=O)c1cccc([N+](=O)[O-])c1)C(=O)O` [Example 31, (2S)-2-(3-nitro)benzenesulfonylamino-3-(3-(3-(4-piperidyl)propanoylamino)propanoylamino)propanoic Acid] showed an IC50 of 0.142 µM. In turn, `O=C(CCC1CCNCC1)NCCC(=O)NC[C@H](NS(=O)(=O)c1ccc([N+](=O)[O-])cc1)C(=O)O` [Example 32, (2S)-2-(4-nitro)benzenesulfonylamino-3-(3-(3-(4-piperidyl)propanoylamino)propanoylamino)propanoic Acid] displayed a half-maximal inhibitory concentration (IC50) under setting [2] of 0.151 µM.

Regarding `Cc1cc(C)c(S(=O)(=O)N[C@@H](CNC(=O)CCNC(=O)CCC2CCNCC2)C(=O)O)c(C)c1` [Example 33, (2S)-3-(3-(3-(4-piperidyl)propanoylamino)propanoylamino)-2-(2,4,6-trimethyl)benzenesulfonylaminopropanoic Acid], the IC50 under setting [2] turned out to be 0.015 µM. Consider `O=C(CCC1CCNCC1)NCCC(=O)NC[C@H](NS(=O)(=O)c1c(F)c(F)c(F)c(F)c1F)C(=O)O` [Example 34, (2S)-2-(2,3,4,5,6-pentafluoro)benzenesulfonylamino-3-(3-(3-(4-piperidyl)propanoylamino)propanoylamino)propanoic Acid], for which, under setting [2], the 50% inhibitory concentration (IC50) came out at 0.126 µM. On to `O=C(CCC1CCNCC1)NCCC(=O)NC[C@H](NS(=O)(=O)c1ccc(F)cc1)C(=O)O` [Example 35, (2S)-2-(4-fluoro)benzenesulfonylamino-3-(3-(3-(4-piperidyl)propanoylamino)propanoylamino)propanoic Acid], for which half-maximal inhibition under setting [2] (IC50) was put at 0.025 µM.

Under setting [2], `O=C(CCC1CCNCC1)NCCC(=O)NC[C@H](NS(=O)(=O)c1ccc(Cl)cc1)C(=O)O` [Example 36, (2S)-2-(4-chloro)benzenesulfonylamino-3-(3-(3-(4-piperidyl)propanoylamino)propanoylamino)propanoic Acid] displayed an IC50 of 0.062 µM.

`O=C(CCC1CCNCC1)NCCC(=O)NC[C@H](NS(=O)(=O)c1ccc(Br)cc1)C(=O)O` [Example 37, (2S)-2-(4-bromo)benzenesulfonylamino-3-(3-(3-(4-piperidyl)propanoylamino)propanoylamino)propanoic Acid]: the IC50 under setting [2] is 0.048 µM. In the case of `CCc1ccc(S(=O)(=O)N[C@@H](CNC(=O)CCNC(=O)CCC2CCNCC2)C(=O)O)cc1` [Example 38, (2S)-2-(4-ethyl)benzenesulfonylamino-3-(3-(3-(4-piperidyl)propanoylamino)propanoylamino)propanoic Acid], under setting [2], the half-inhibitory concentration (IC50) was found to be 0.035 µM. Consider `CC(C)(C)c1ccc(S(=O)(=O)N[C@@H](CNC(=O)CCNC(=O)CCC2CCNCC2)C(=O)O)cc1` [Example 39, (2S)-2-(4-t-butyl)benzenesulfonylamino-3-(3-(3-(4-piperidyl)propanoylamino)propanoylamino)propanoic Acid], for which the half-maximal inhibitory concentration (IC50) under setting [2] is 0.185 µM. `COc1ccc(S(=O)(=O)N[C@@H](CNC(=O)CCNC(=O)CCC2CCNCC2)C(=O)O)cc1` [Example 40, (2S)-2-(4-methoxy)benzenesulfonylamino-3-(3-(3-(4-piperidyl)propanoylamino)propanoylamino)propanoic Acid] registered a 50% inhibitory concentration (IC50) under setting [2] of 0.003 µM.

Compound `O=C(CCC1CCNCC1)NCCC(=O)NC[C@H](NS(=O)(=O)c1cccc2ccccc12)C(=O)O` [Example 41, (2S)-2-(1-naphthalene)sulfonylamino-3-(3-(3-(4-piperidyl)propanoylamino)propanoylamino)propanoic Acid] returned a half-inhibitory concentration (IC50) under setting [2] of 0.035 µM.
